Values of other authors in patent US6387861B1, “Detergent compositions” (Unilever Home & Personal Care USA division of Conopco, Inc., priority 1999, dated 2002).
Like-named read-outs stand apart in the source and are kept apart here.

Settings: 20° C.

Compound	Water Solubility (other common materials)	Water Solubility (grams of solid to form a saturated solution in 100 grams of water, highly water-soluble materials)
O=BO[O-].[Na+] [Sodium perborate anhydrous]	3.7 g/100 g	
O=P(O)(O)OP(=O)(O)OP(=O)(O)O [Sodium tripolyphosphate anhydrous]	15 g/100 g	
NC(N)=O [Urea]		>100 g/100 g
